The supplement of paper PMC4862054

Columns and labels:
Conditions in all cases: incubation time: 72 h
[1] = tested on: SK-BR-3; experiment: drug sensitivity score (DSS), CellTiter-Glo (DSS (AUC-based score)); higher = stronger drug effect (viability inhibition or cytotoxicity); extreme values may be limits of the assay
Method in brief: (§1)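 After 72 h of incubation in 384-well plates with compound at 5 concentrations (10-fold steps, 10,000-fold range set per compound), breast cancer cell lines seeded in 20 µl suspension were read first for CellTox Green fluorescence at 485/520 nm. CellTiter-Glo luminescence was measured next, after 10 min at room temperature. Normalisation on each plate used 0.1 % DMSO and a positive kill control, and the drug sensitivity score was computed from the area under the fitted dose-response curve.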

[2] = tested on: Hs578T; experiment: as above
Method in brief: as §1

[3] = tested on: HCC1143; experiment: as above
Method in brief: as §1

[4] = tested on: CAL-85-1; experiment: as above
Method in brief: as §1

[5] = tested on: MDA-MB-231; experiment: as above
Method in brief: as §1

[6] = tested on: BT-549; experiment: as above
Method in brief: as §1

[7] = tested on: MDA-MB-436; experiment: as above
Method in brief: as §1

[8] = tested on: BT-474; experiment: as above
Method in brief: as §1

[9] = tested on: HCC1599; experiment: as above
Method in brief: as §1

[10] = tested on: DU-4475; experiment: as above
Method in brief: as §1

[11] = tested on: HDQ-P1; experiment: normalised viability (% of control), CellTiter-Blue; higher = more viable cells (about 100 = DMSO control)
Protocol: (§2)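 DSRT, CellTiter-Blue viability, 72 h incubation. Signal is normalised to DMSO and benzethonium chloride controls. Value is the normalised response at dose 3.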

[12] = tested on: CAL-120; experiment: as above
Protocol: as §2

[13] = tested on: SK-BR-3; experiment: as above
Protocol: as §2

[14] = tested on: MDA-MB-468; experiment: as above
Protocol: as §2

[15] = tested on: CAL-51; experiment: as above
Protocol: as §2

[16] = tested on: Hs578T; experiment: as above
Protocol: as §2

[17] = tested on: HCC1143; experiment: as above
Protocol: as §2

[18] = tested on: CAL-85-1; experiment: as above
Protocol: as §2

[19] = tested on: HCC1937; experiment: as above
Protocol: as §2

[20] = tested on: MFM-223; experiment: as above
Protocol: as §2

[21] = tested on: MDA-MB-231; experiment: as above
Protocol: as §2

[22] = tested on: BT-549; experiment: as above
Protocol: as §2

[23] = tested on: MDA-MB-436; experiment: as above
Protocol: as §2

[24] = tested on: MDA-MB-453; experiment: as above
Protocol: as §2

[25] = tested on: CAL-148; experiment: as above
Protocol: as §2

[26] = tested on: BT-474; experiment: as above
Protocol: as §2

[27] = tested on: HCC1599; experiment: as above
Protocol: as §2

[28] = tested on: DU-4475; experiment: as above
Protocol: as §2

| Compound | drug sensitivity score [1] | drug sensitivity score [2] | drug sensitivity score [3] | drug sensitivity score [4] | drug sensitivity score [5] | drug sensitivity score [6] | drug sensitivity score [7] | drug sensitivity score [8] | drug sensitivity score [9] | drug sensitivity score [10] | normalised viability ([11]; 10 nM) [%] | normalised viability ([12]; 100 nM) [%] | normalised viability ([13]; 100 nM) [%] | normalised viability ([14]; 100 nM) [%] | normalised viability ([15]; 10 nM) [%] | normalised viability ([16]; 100 nM) [%] | normalised viability ([17]; 100 nM) [%] | normalised viability ([18]; 10 nM) [%] | normalised viability ([19]; 100 nM) [%] | normalised viability ([20]; 100 nM) [%] | also measured |
| --- | --- | --- | --- | --- | --- | --- | --- | --- | --- | --- | --- | --- | --- | --- | --- | --- | --- | --- | --- | --- | --- |
| Cc1ccc(NC(=O)c2ccc(CN3CCN(C)CC3)cc2)cc1Nc1nc(-c2cccnc2)cs1 [Masitinib] | 1.79 | 0 | 0 | 0 | 1.26 | 3.23 | 0 | 1.81 | 1.31 | 0 | 116 | 82.3 | 80.7 | 103 | 100 | 86.6 | 83 | 98.1 | 107 | 101 | normalised viability ([21]; 100 nM): 88.7%; normalised viability ([22]; 100 nM): 88.3%; normalised viability ([23]; 100 nM): 71.6%; normalised viability ([24]; 10 nM): 103%; normalised viability ([25]; 10 nM): 89.8%; normalised viability ([26]; 100 nM): 115%; normalised viability ([27]; 100 nM): 109%; normalised viability ([28]; 10 nM): 102% |
| O=C(Nc1ccncc1)C(=O)c1cn(Cc2ccc(Cl)cc2)c2ccccc12 [Indibulin] | 12.8 | 7.7 | 5.89 | 13 | 3.55 | 12.6 | 11.9 | 4.97 | 7.03 | 1.15 | 95.8 | 36.5 | 18.9 | 61.1 | 100 | 67.7 | 64 | 106 | 30.4 | 108 | normalised viability ([21]; 100 nM): 52%; normalised viability ([22]; 100 nM): 69.9%; normalised viability ([23]; 100 nM): 73.8%; normalised viability ([24]; 10 nM): 84.8%; normalised viability ([25]; 10 nM): 105%; normalised viability ([26]; 100 nM): 41.7%; normalised viability ([27]; 100 nM): 146%; normalised viability ([28]; 10 nM): 108% |
| NC(=O)c1ccc(I)c([N+](=O)[O-])c1 [Iniparib] | 0 | 0 | 0 | 0 | 0 | 0 | 3.5 | 0 | 0 | 0 | 108 | 105 | 72.4 | 96.7 | 93 | 91.8 | 86.8 | 87.6 | 109 | 92.4 | normalised viability ([21]; 100 nM): 98.8%; normalised viability ([22]; 100 nM): 106%; normalised viability ([23]; 100 nM): 88.5%; normalised viability ([24]; 10 nM): 86.2%; normalised viability ([25]; 10 nM): 96.3%; normalised viability ([26]; 100 nM): 94.6%; normalised viability ([27]; 100 nM): 103%; normalised viability ([28]; 10 nM): 101% |
| COCC[n+]1c2c(n(Cc3cnccn3)c1C)C(=O)c1ccccc1C2=O [YM155] | 33 | 18.8 | 35.2 | 39.2 | 37.8 | 25.8 | 40.6 | 40 | 35.3 | 27.1 | 64.2 | 5.35 | 1.25 | 0.74 | 70.5 | 47.6 | 12.4 | 29.7 | 3.81 | 26.1 | normalised viability ([21]; 100 nM): 1.71%; normalised viability ([22]; 100 nM): 34%; normalised viability ([23]; 100 nM): 2.36%; normalised viability ([24]; 10 nM): 44.7%; normalised viability ([25]; 10 nM): 61.4%; normalised viability ([26]; 100 nM): 1.04%; normalised viability ([27]; 100 nM): 10%; normalised viability ([28]; 10 nM): 110% |
| O=C(/C=C/c1cccc(S(=O)(=O)Nc2ccccc2)c1)NO [Belinostat] | 18.3 | 11 | 11.6 | 12.6 | 14 | 9.61 | 10.5 | 14.9 | 12.1 | 15.9 | 121 | 66.3 | 65.7 | 88.5 | 105 | 70.2 | 96.6 | 89.7 | 92.4 | 96.4 | normalised viability ([21]; 100 nM): 93.7%; normalised viability ([22]; 100 nM): 91.2%; normalised viability ([23]; 100 nM): 95.3%; normalised viability ([24]; 10 nM): 95.8%; normalised viability ([25]; 10 nM): 91%; normalised viability ([26]; 100 nM): 90.4%; normalised viability ([27]; 100 nM): 82.8%; normalised viability ([28]; 10 nM): 109% |
| Cc1[nH]c2ccccc2c1CCNCc1ccc(/C=C/C(=O)NO)cc1 [Panobinostat] | 22.3 | 15.1 | 15.1 | 16.5 | 18.2 | 11.1 | 10.2 | 16.6 | 14.7 | 19.2 | – | – | – | – | – | – | – | – | – | – | normalised viability ([11]; 1 nM): 102%; normalised viability ([12]; 10 nM): 59.3%; normalised viability ([13]; 10 nM): 52.3%; normalised viability ([14]; 10 nM): 76.8%; normalised viability ([15]; 1 nM): 116%; normalised viability ([16]; 10 nM): 86.8%; normalised viability ([17]; 10 nM): 86.7%; normalised viability ([18]; 1 nM): 99.3%; normalised viability ([19]; 10 nM): 69.7%; normalised viability ([20]; 10 nM): 101%; normalised viability ([21]; 10 nM): 94.6%; normalised viability ([22]; 10 nM): 106%; normalised viability ([23]; 10 nM): 96.4%; normalised viability ([24]; 1 nM): 110%; normalised viability ([25]; 1 nM): 102%; normalised viability ([26]; 10 nM): 97.4%; normalised viability ([27]; 10 nM): 84.7%; normalised viability ([28]; 1 nM): 115% |
| COCC1(CO)C(=O)C2CCN1CC2 (configuration not stated) [Prima-1 Met] | 0 | 0 | 0 | 0 | 0 | 2.79 | 0 | 0 | 0 | 0 | 91.2 | 91.5 | 94.2 | 106 | 93.9 | 82.6 | 74.8 | 91.4 | 118 | 87.6 | normalised viability ([21]; 100 nM): 91.3%; normalised viability ([22]; 100 nM): 79.3%; normalised viability ([23]; 100 nM): 101%; normalised viability ([24]; 10 nM): 106%; normalised viability ([25]; 10 nM): 90.2%; normalised viability ([26]; 100 nM): 104%; normalised viability ([27]; 100 nM): 122%; normalised viability ([28]; 10 nM): 99.2% |
| COc1cc(OC2CCN(C)CC2)ccc1Nc1ncc2c(n1)n(C1CCCC1)c(=O)n2C [AZ 3146] | 4.5 | 0 | 0 | 2.31 | 0 | 0 | 0 | 2.51 | 1.58 | 0 | 79.1 | 121 | 97.3 | 106 | 92.3 | 82 | 133 | 94.8 | 81.8 | 105 | normalised viability ([21]; 100 nM): 96.1%; normalised viability ([22]; 100 nM): 85%; normalised viability ([23]; 100 nM): 93.5%; normalised viability ([24]; 10 nM): 88.2%; normalised viability ([25]; 10 nM): 105%; normalised viability ([26]; 100 nM): 113%; normalised viability ([27]; 100 nM): 90.1%; normalised viability ([28]; 10 nM): 101% |
| O=C(Nc1cccnc1)N1CCC(Cc2cccc(Oc3ccc(C(F)(F)F)cn3)c2)CC1 [PF-3845] | 0 | 0 | 0 | 0.0221 | 0 | 1.34 | 0 | 0 | 1.04 | 0 | 116 | 96.5 | 104 | 102 | 101 | 122 | 89.9 | 92.2 | 107 | 90.1 | normalised viability ([21]; 100 nM): 128%; normalised viability ([22]; 100 nM): 111%; normalised viability ([23]; 100 nM): 113%; normalised viability ([24]; 10 nM): 105%; normalised viability ([25]; 10 nM): 86.9%; normalised viability ([26]; 100 nM): 116%; normalised viability ([27]; 100 nM): 99.6%; normalised viability ([28]; 10 nM): 104% |
